Reference: patent US10723695B2, “Microbiocidal phenylamidine derivatives” (SYNGENTA PARTICIPATIONS AG, priority 2015, dated 2020)

How the values were obtained:
[1] = tested on: Puccinia recondita f. sp. tritici; experiment: Puccinia recondita f. sp. tritici / wheat / leaf disc curative (brown rust); format: in vivo; details: foliar, 24 h, wheat leaf segments cv. Kanzler, curative (applied 1 day after inoculation), compared to untreated control leaf disks, read-out: disease control
Protocol: Puccinia recondita f. sp. tritici/Wheat/Leaf Disc Curative (Brown Rust) Wheat leaf segments cv. Kanzler are placed on agar in multiwell plates (24-well format). The leaf segments are inoculated with a spore suspension of the fungus. Plates were stored in darkness at 19° C. and 75% rh. The formulated test compound diluted in water was applied 1 day after inoculation.

[2] = tested on: Blumeria graminis f. sp. tritici (Erysiphe graminis f. sp. tritici); experiment: Blumeria graminis f. sp. tritici / wheat / leaf disc preventative (powdery mildew on wheat); format: in vivo; details: foliar, wheat leaf segments cv. Kanzler, compared to untreated control leaf disks, read-out: disease control
Description: Blumeria graminis f. sp. tritici (Erysiphe graminis f. sp. tritici)/Wheat/Leaf Disc Preventative (Powdery Mildew on Wheat) Wheat leaf segments cv. Kanzler were placed on agar in a multiwell plate (24-well format) and sprayed with the formulated test compound diluted in water. The leaf disks were inoculated by shaking powdery mildew infected plants above the test plates 1 day after application.

[3] = tested on: Puccinia recondita f. sp. tritici; experiment: Puccinia recondita f. sp. tritici / wheat / leaf disc preventative (brown rust); format: in vivo; details: foliar, wheat leaf segments cv. Kanzler, compared to untreated control leaf disks, read-out: disease control
Protocol: Puccinia recondita f. sp. tritici/Wheat/Leaf Disc Preventative (Brown Rust) Wheat leaf segments cv. Kanzler were placed on agar in multiwell plates (24-well format) and sprayed with the formulated test compound diluted in water. The leaf disks were inoculated with a spore suspension of the fungus 1 day after application. The inoculated leaf segments were incubated at 19° C. and 75% rh under a light regime of 12 h light/12 h darkness in a climate cabinet and the activity of a compound was assessed as percent disease control compared to untreated when an appropriate level of disease damage appears in untreated check leaf segments (7-9 days after application).

Phakopsora pachyrhizi = Phakopsora pachyrhizi / soybean / leaf disk preventative (soybean rust); format: in vivo; details: foliar, soybean leaf disks, compared to untreated control leaf disks, read-out: disease control
Protocol: Phakopsora pachyrhizi/Soybean/Leaf Disk Preventative (Soybean Rust) Four-week old soybean plants are sprayed in a spray chamber with the formulated test compound diluted in water. Leaf disks are cut from treated plants and placed on agar into 24-well plates one day after application. Leaf disks are inoculated by spraying them with a spore suspension on their lower leaf surface. After an incubation period in a climate cabinet of 24-36 hours in darkness at 20° C. and 75% rh, the leaf disks are then kept at 20° C. with 12 h light/day and 75% rh. The percentage leaf disk area covered by disease is assessed when an appropriate level of disease appears on untreated check plants (12-14 days after application).

Row | SMILES | melting point | pest or weed control at 200 ppm [1] | pest or weed control at 200 ppm [2] | pest or weed control at 200 ppm [3] | pest or weed control at 200 ppm (Phakopsora pachyrhizi)
1 | CCN(C)/C=N/c1cc(OC)c(C(O)(c2ccccc2)C(F)(F)F)cc1F (stereo not shown) [Compound E1.153] | 144 to 146 °C | – | – | – | –
2 | COc1cc(/N=C/N(C)C(C)C)c(C)cc1C(O)(c1ccccc1Cl)C(F)(F)F (stereo not shown) [Compound E1.151] | 67 to 69 °C | – | – | – | –
3 | CCN(C)/C=N/c1cc(OC)c(C(O)(c2cc(F)ccc2C)C(F)(F)F)cc1C (stereo not shown) [Compound E1.145] | 95 to 97 °C | – | – | – | –
4 | CCN(C)/C=N/c1cc(OC)c(C(O)(c2cccc(F)c2F)C(F)(F)F)cc1C (stereo not shown) [Compound E1.143] | 130 to 132 °C | – | – | – | –
5 | COc1cc(/N=C/N(C)C)c(C)cc1C(O)(c1ccccc1)C(F)(F)F (stereo not shown) [Compound E1.137] | 133 to 135 °C | – | – | – | –
6 | CCN(C)/C=N/c1cc(OC)c(C(O)(c2ccc(C#N)cc2)C(F)(F)F)cc1C (stereo not shown) [Compound E1.040] | 167 to 169 °C | ≥ 80% | ≥ 80% | – | –
7 | COc1cc(/N=C/N(C)C(C)C)c(C)cc1C(O)(c1cccc(F)c1)C(F)(F)F (stereo not shown) [Compound E1.152] | 92 to 94 °C | – | – | – | –
8 | CCN(/C=N/c1cc(OC)c(C(O)(c2ccccc2)C(F)(F)F)cc1C)CC (stereo not shown) [Compound E1.139] | 102 to 104 °C | – | – | – | –
9 | COc1cc(/N=C/N(C)C(C)C)c(C)cc1C(O)(c1ccccc1C)C(F)(F)F (stereo not shown) [Compound E1.148] | 138 to 140 °C | – | – | – | –
10 | CCN(C)/C=N/c1cc(OC)c(C(O)(c2ccc(F)c(F)c2)C(F)(F)F)cc1C (stereo not shown) [Compound E1.128] | 108 to 110 °C | – | – | – | –
11 | CCN(C)/C=N/c1cc(OC)c(C(O)(c2cccc(F)c2C)C(F)(F)F)cc1C (stereo not shown) [Compound E1.132] | 107 to 109 °C | – | – | – | –
12 | COc1cc(/N=C/N(C)C(C)C)c(C)cc1C(O)(c1cc(F)cc(F)c1)C(F)(F)F (stereo not shown) [Compound E1.149] | 110 to 112 °C | – | – | – | –
13 | CCN(C)/C=N/c1cc(SC)c(C(O)(c2ccccc2)C(F)(F)F)cc1C (stereo not shown) [Compound E1.113] | 160 to 165 °C | ≥ 80% | ≥ 80% | – | –
14 | CCN(C)/C=N/c1cc(OC(C)C)c(C(O)(c2ccccc2)C(F)(F)F)cc1C (stereo not shown) [Compound E1.115] | 119 to 120 °C | – | – | – | –
15 | COc1cc(/N=C/N(C)C(C)C)c(C)cc1C(O)(c1ccccc1F)C(F)(F)F (stereo not shown) [Compound E1.150] | 86 to 88 °C | – | – | – | –
16 | CCN(C)/C=N/c1cc(OC)c(C(O)(c2cccnc2F)C(F)(F)F)cc1C (stereo not shown) [Compound E1.157] | 113 to 115 °C | – | – | – | –
17 | CCN(/C=N/c1cc(OC)c(C(O)(C(C)C)C(F)(F)F)cc1C)CC (stereo not shown) [Compound E1.133] | 60 to 62 °C | – | – | – | –
18 | COc1cc(/N=C/N(C)C(C)C)c(C)cc1C(O)(c1c(F)cccc1F)C(F)(F)F (stereo not shown) [Compound E1.148] | 119 to 121 °C | – | – | – | –
19 | CCN(C)/C=N/c1cc(OC)c(C(O)(C#CC2CCCCC2)C(F)(F)F)cc1C (stereo not shown) [Compound E1.085] | 62 to 64 °C | ≥ 80% | – | – | –
20 | CCCCC(O)(c1cc(C)c(/N=C/N(C)C2CC2)cc1OC)C(F)(F)F (stereo not shown) [Compound E1.049] | – | ≥ 80% | ≥ 80% | ≥ 80% | ≥ 80%
21 | COc1cc(/N=C/N(C)C(C)C)c(C)cc1C(O)(c1cc(F)ccc1C)C(F)(F)F (stereo not shown) [Compound E1.146] | 116 to 118 °C | – | – | – | –
22 | COc1cc(/N=C/N2CCCC2)c(C)cc1C(O)(C(C)C)C(F)(F)F (stereo not shown) [Compound E1.135] | 102 to 104 °C | – | – | – | –
23 | CCN(C)/C=N/c1cc(OC)c(C(O)(c2ccccc2)C(F)(F)Cl)cc1C (stereo not shown) [Compound E1.122] | – | ≥ 80% | ≥ 80% | ≥ 80% | ≥ 80%
24 | CCCCC(O)(c1cc(C)c(/N=C/N(C)C(C)C)cc1OC)C(F)(F)F (stereo not shown) [Compound E1.053] | – | ≥ 80% | ≥ 80% | ≥ 80% | ≥ 80%

Row | SMILES | melting point | pest or weed control at 200 ppm [1] | pest or weed control at 200 ppm [2] | pest or weed control at 200 ppm [3] | pest or weed control at 200 ppm (Phakopsora pachyrhizi)
25 | CCN(C)/C=N/c1cc(OC)c(C(O)(c2cccnc2OC)C(F)(F)F)cc1C (stereo not shown) [Compound E1.112] | – | ≥ 80% | ≥ 80% | ≥ 80% | ≥ 80%
26 | CCN(C)/C=N/c1cc(OC)c(C(O)(c2c(F)cccc2F)C(F)(F)F)cc1C (stereo not shown) [Compound E1.147] | 128 to 130 °C | – | – | – | –
27 | CCN(C)/C=N/c1cc(OC)c(C(O)(C2CC2)C(F)(F)Cl)cc1C (stereo not shown) [Compound E1.120] | – | ≥ 80% | ≥ 80% | ≥ 80% | ≥ 80%
28 | CCN(C)/C=N/c1cc(OC)c(C(O)(CC(C)(C)C)C(F)(F)F)cc1C (stereo not shown) [Compound E1.066] | – | ≥ 80% | ≥ 80% | ≥ 80% | ≥ 80%
29 | CCN(C)/C=N/c1cc(OC)c(C(O)(c2ccc(C)s2)C(F)(F)F)cc1C (stereo not shown) [Compound E1.104] | – | ≥ 80% | ≥ 80% | ≥ 80% | ≥ 80%
30 | CCN(C)/C=N/c1cc(OC)c(C(O)(c2cccc(Cl)n2)C(F)(F)F)cc1C (stereo not shown) [Compound E1.106] | – | ≥ 80% | ≥ 80% | ≥ 80% | ≥ 80%
31 | C#CCC(O)(c1cc(C)c(/N=C/N(C)CC)cc1OC)C(F)(F)F (stereo not shown) [Compound E1.083] | – | ≥ 80% | ≥ 80% | ≥ 80% | ≥ 80%
32 | CCCCC(O)(c1cc(Cl)c(/N=C/N(C)CC)cc1OC)C(F)(F)F (stereo not shown) [Compound E1.117] | – | ≥ 80% | ≥ 80% | ≥ 80% | ≥ 80%
33 | COc1cc(/N=C/N2CCCC2)c(C)cc1C(O)(c1ccccc1)C(F)(F)F (stereo not shown) [Compound E1.135] | 157 to 159 °C | – | – | – | –
34 | CCN(C)/C=N/c1cc(OC)c(C(O)(C2CCC(C)CC2)C(F)(F)F)cc1C (stereo not shown) [Compound E1.062] | – | ≥ 80% | ≥ 80% | ≥ 80% | ≥ 80%
35 | COc1cc(/N=C/N(C)C(C)C)c(C)cc1C(O)(c1ccc(F)c(F)c1)C(F)(F)F (stereo not shown) [Compound E1.127] | 116 to 118 °C | – | – | – | –
36 | CCN(C)/C=N/c1cc(OC)c(C(O)(C2CCC(C)(C)CC2)C(F)(F)F)cc1C (stereo not shown) [Compound E1.061] | – | ≥ 80% | ≥ 80% | ≥ 80% | ≥ 80%
37 | COc1cc(/N=C/N(C)C(C)C)c(C)cc1C(O)(c1cccc(F)c1C)C(F)(F)F (stereo not shown) [Compound E1.131] | 127 to 129 °C | – | – | – | –
38 | COc1cc(/N=C/N(C)C(C)C)c(C)cc1C(O)(C=C(C)C)C(F)(F)F (stereo not shown) [Compound E1.141] | 77 to 79 °C | – | – | – | –
39 | CCN(C)/C=N/c1cc(OC)c([C@](O)(c2ccccc2)C(F)(F)F)cc1C [Compound E1.014] | – | ≥ 80% | ≥ 80% | ≥ 80% | ≥ 80%
40 | COc1cc(/N=C/N(C)C(C)C)c(C)cc1C(O)(c1cc(F)ccc1F)C(F)(F)F (stereo not shown) [Compound E1.135] | 112 to 115 °C | – | – | – | –
41 | CCN(C)/C=N/c1cc(OC)c(C(O)(c2ccccc2OC)C(F)(F)F)cc1C (stereo not shown) [Compound E1.030] | – | ≥ 80% | ≥ 80% | ≥ 80% | ≥ 80%
42 | CCCCC(O)(c1cc(C)c(/N=C/N2CCCC2)cc1OC)C(F)(F)F (stereo not shown) [Compound E1.134] | 103 to 105 °C | – | – | – | –
43 | C=CCC(O)(c1cc(C)c(/N=C/N(C)CC)cc1OC)C(F)(F)Cl (stereo not shown) [Compound E1.121] | – | ≥ 80% | ≥ 80% | ≥ 80% | ≥ 80%
44 | CCN(C)/C=N/c1cc(OC)c(C(O)(C(C)C)C(F)(F)Cl)cc1C (stereo not shown) [Compound E1.119] | – | ≥ 80% | ≥ 80% | ≥ 80% | ≥ 80%
45 | COc1cc(/N=C/N(C)C(C)C)c(C)cc1C(O)(c1cccc(F)c1F)C(F)(F)F (stereo not shown) [Compound E1.144] | 97 to 99 °C | – | – | – | –
46 | COc1cc(/N=C/N(C)C(C)C)c(C)cc1C(O)(c1cccnc1F)C(F)(F)F (stereo not shown) [Compound E1.158] | 120 to 122 °C | – | – | – | –
47 | CCCCCC(O)(c1cc(C)c(/N=C/N(C)CC)cc1OC)C(F)(F)F (stereo not shown) [Compound E1.065] | – | ≥ 80% | ≥ 80% | ≥ 80% | ≥ 80%
